Laboratory results taken from patent US8193228B2, “Substituted imidazole as bombesin receptor subtype-3 modulators” (Merck Sharp & Dohme Corp., priority 2006, dated 2012).

target: T1, human BRS-3 (Homo sapiens, UniProt P32247); assay: BRS-3 receptor binding assay (radioligand filtration); details: read-out: BRS-3 binding IC50; selected compounds
T1 construct: expressed in transfected cells
T1 sequence (P32247 1-399): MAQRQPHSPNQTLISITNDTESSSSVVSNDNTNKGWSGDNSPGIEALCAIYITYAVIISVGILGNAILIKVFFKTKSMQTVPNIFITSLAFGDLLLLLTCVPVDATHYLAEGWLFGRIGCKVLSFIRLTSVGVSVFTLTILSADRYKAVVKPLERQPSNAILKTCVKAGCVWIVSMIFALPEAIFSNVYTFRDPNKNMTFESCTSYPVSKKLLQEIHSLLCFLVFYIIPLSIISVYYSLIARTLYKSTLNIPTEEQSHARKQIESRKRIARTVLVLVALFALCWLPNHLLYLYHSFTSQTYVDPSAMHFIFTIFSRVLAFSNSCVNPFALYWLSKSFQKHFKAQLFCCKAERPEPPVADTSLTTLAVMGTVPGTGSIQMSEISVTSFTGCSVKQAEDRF
Experimental: Dissociated cells were collected by centrifuging at 1000 rpm for 10 minutes. Cell pellets were resuspended and homogenized at 4° C. using a Polytron homogenizer (setting 40, 20 stokes) in approximately 10 mL membrane preparation buffer (10 mM Tris pH 7.4, 0.01 mM Pefabloc, 10 μM phosphoramidon and 40 μg/mL Bacitracin) per T175 flask. After centrifugation at 2200 rpm (1000×g) for 10 minutes at 4° C., the supernatant was transferred to a clean centrifuge tube and spun at 18,000 rpm (38,742×g) for 15 minutes. at 4° C.
The filters were washed five times with ice-cold washing buffer (1×PBS without Mg^++ and Ca^++). The radioactivity was determined by adding 30 μl of microscintillant/well after each plate was dried at room temperature overnight or placed at 50° C. for 1 hr.
The radioligand, [^3H]-1-{4-[(4,5-difluoro-2-hydroxycarbonylphenyl)phenyl]}-2-(4-cyclohexylmethyl-1H-imidazol-2-yl)ethane, was used for binding to receptor membranes generated with BRS3 from other species and was also utilized for the human receptor. […] After incubation for 1-2 hours at room temperature, membrane bound [^3H]-biphenyl was separated from free radiologand by filtering through GF/C filters presoaked in 1% PEI solution. The filters were washed five times with ice-cold washing buffer (50 mM Tris pH 7.4, 10 mM MgCl2, 2.5 mM EDTA and 0.02% Triton X-100). The radioactivity was determined by adding 30 μl of microscintillant/well after each plate was dried at room temperature overnight or placed at 50° C. for 1 hr.
A Packard Top Count was used to read the filter plates. The data in % inhibition of binding was plotted vs. the log molar concentration of receptor ligand (compound). The IC50 was reported as the inflection point of the resulting sigmoidal curve.

`O[C@@](Cc1nc(CC2(C(F)(F)F)CC2)c[nH]1)(c1ccc(-n2cccn2)cc1)C(F)(F)F` [Example 31a, (2S)-1,1,1-trifluoro-2-[4-(1H-pyrazol-1-yl)phenyl]-3-(4-{[1-(trifluoromethyl)cyclopropyl]methyl}-1H-imidazol-2-yl)propan-2-ol] was tested, and the IC50 was 0.036 µM.

same assay, conditions: selected compounds; read-out: BRS-3 binding IC50

`OC(Cc1nc(CC2(C(F)(F)F)CC2)c[nH]1)(c1ccc(-c2ccc(F)cn2)cc1)C(F)(F)F` (single isomer, unassigned) [Example 55, 1,1,1-trifluoro-2-[4-(5-fluoropyridin-2-yl)phenyl]-3-(4-{[1-(trifluoromethyl)cyclopropyl]methyl}-1H-imidazol-2-yl)propan-2-ol] and `OC(Cc1nc(CC2(C(F)(F)F)CC2)c[nH]1)(c1ccc(-c2ccc(F)cn2)cc1)C(F)F` (stereo not drawn) [Example 45, 1,1-difluoro-2-[4-(5-fluoropyridin-2-yl)phenyl]-3-(4-{[1-(trifluoromethyl)cyclopropyl]methyl}-1H-imidazol-2-yl)propan-2-ol] are within 1.5-fold of each other in IC50: 0.056 µM for the first, 0.071 µM for the second.

First: OC(Cc1nc(CC2(C(F)(F)F)CC2)c[nH]1)(c1ccc(-n2cccn2)cc1)C(F)F (single isomer, unassigned) [Example 72, 1,1-difluoro-2-[4-(1H-pyrazol-1-yl)phenyl]-3-(4-{[1-(trifluoro-methyl)cyclopropyl]methyl}-1H-imidazol-2-yl)propan-2-ol]
Second: CC(O)(Cc1nc(CC2(C(F)(F)F)CC2)c[nH]1)c1ccc(-n2cccn2)cc1 (stereo not drawn) [Example 52, 2-[4-(1H-pyrazol-1-yl)phenyl]-1-(4-{[1-(trifluoromethyl)cyclopropyl]methyl}-1H-imidazol-2-yl)propan-2-ol]
The IC50 of the first is 1.6-fold lower: 0.012 µM for the first, 0.019 µM for the second. The first is the more potent here.

`CC(C)(C)Cc1c[nH]c(CC(O)(c2ccc(-c3ccc(F)cn3)cc2)C(F)(F)F)n1` (stereo not drawn) [Example 1, 3-[4-(2,2-dimethylpropyl)-1H-imidazol-2-yl]-1,1,1-trifluoro-2-[4-(5-fluoropyridin-2-yl)phenyl]propan-2-ol] and `CC(C)(C)Cc1c[nH]c(CC(O)(c2ccc(-c3ccc(F)cn3)cc2)C(F)F)n1` (stereo not drawn) [Example 40, 3-[4-(2,2-dimethylpropyl)-1H-imidazol-2-yl]-1,1-difluoro-2-[4-(5-fluoropyridin-2-yl)phenyl]propan-2-ol] are within 1.5-fold of each other in IC50: 0.018 µM for the first, 0.015 µM for the second.

Compared with `CC(C)(C)Cc1c[nH]c(CC(C)(O)c2ccc(-c3ccc(F)cn3)cc2)n1` (stereo not drawn) [Example 4, 1-[4-(2,2-dimethylpropyl)-1H-imidazol-2-yl]-2-[4-(5-fluoropyridin-2-yl)phenyl]propan-2-ol], `CC(O)(Cc1nc(CC2(C(F)(F)F)CC2)c[nH]1)c1ccc(-c2ccc(F)cn2)cc1` (stereo not drawn) [Example 49, 2-[4-(5-fluoropyridin-2-yl)phenyl]-1-(4-{[1-(trifluoromethyl)cyclopropyl]methyl}-1H-imidazol-2-yl)propan-2-ol] is 2.8-fold higher in IC50: 0.019 µM for the first, 0.054 µM for the second. The first is the more potent here.

First: CC(C)(C)Cc1c[nH]c(CC(C)(O)c2ccc(-n3cccn3)cc2)n1 (stereo not drawn) [Example 60, 1-[4-(2,2-dimethylpropyl)-1H-imidazol-2-yl]-2-[4-(1H-pyrazol-1-yl)phenyl]propan-2-ol]
Second: CC(C)(C)Cc1c[nH]c(CC(O)(c2ccc(-n3cccn3)cc2)C(F)F)n1 (stereo not drawn) [Example 75, 3-[4-(2,2-dimethylpropyl)-1H-imidazol-2-yl]-1,1-difluoro-2-[4-(1H-pyrazol-1-yl)phenyl]propan-2-ol]
The IC50 of the first is 2.1-fold higher: 0.023 µM for the first, 0.011 µM for the second. The second is the more potent here.

In the case of `CC(C)(C)Cc1c[nH]c(CC(O)(c2ccc(-n3cccn3)cc2)C(F)(F)F)n1` (stereo not drawn) [Example 78, 3-[4-(2,2-dimethylpropyl)-1H-imidazol-2-yl]-1,1,1-trifluoro-2-[4-(1H-pyrazol-1-yl)phenyl]propan-2-ol], the IC50 is reported as 0.017 µM.
